The source of these data is patent US11298343B2, “Method for treating thalassemia” (ST. JUDE CHILDREN'S RESEARCH HOSPITAL, priority 2017, dated 2022).

One data set relates to Hbb^Th3/+ mice. The following applies: systemic administration (Khandros 2012); cited from earlier work.
Data set [1] relates to β-thalassemic erythroblasts. The experiment in a line: Cell survival of treated erythroblasts derived from β-thalassemia patient CD34+ cells. The following applies: added day 13, 48 hours.
Description: Erythroid differentiation and maturation were monitored by flow cytometry with an LSR/Fortessa cell analyzer (BD Biosciences), using the following antibodies: anti-CD235a (BD Biosciences), anti-Band3, and anti-α4-integrin (Miltenyi).
The subject of data set [2] is free α-globin in β-thalassemic erythroblasts. Description: Free α-globin by HPLC in erythroblasts derived from β-thalassemia patient CD34+ cells. The data set is classed as cell-based, human. The settings on record: for reduction of free α-globin: rapamycin 10 μM or 20 μM added day 13, HPLC two days later. The method, then: Cells were lysed in Hemolysate reagent (Helena Laboratories, Beaumont, Tex.) and centrifuged. Analysis of globin chains in the supernatant was performed by ion exchange (IE) and reverse phase (RP)-HPLC (Prominence UFLC, Shimadzu). Proteins eluting from the column were quantified by light absorbance at 220, 280, and 415 nm with a diode array detector. The relative amount of free α-globin was calculated from the area of the peak for each condition at 415 nm and normalized based on the DMSO control. The percentage was calculated as follows: % α-globin=[α-chain/ρ-chain (β+γ+δ)×100].

In another data set the test system is Hbb^Th3/+ reticulocytes. The experiment in a line: Reticulocyte pulse-chase analysis of insoluble α-globin turnover with inhibitors. The data set is classed as cell-based, mice. The following applies: 6 hours chase, 10 μM MG132, 100 μM chloroquine or 0.2 μM bafilomycin A1. Here is the method:
Briefly, reticulocytes were pulse-labeled with ^35S-cysteine and ^35S-methionine for 30 minutes then chased with unlabeled amino acids±proteasome inhibitor (10 μM MG132) and/or lysosome inhibitor (100 μM chloroquine or 0.2 μM bafilomycin A1). Insoluble α-globin was isolated by TAU gel electrophoresis, analyzed by autoradiography, and quantified using AlphaView SA 3.4.0 (ProteinSimple).
To investigate how the depletion of ULK1 or ATG5 affects the turnover of insoluble α-globin in β-thalassemia, mutant reticulocytes were pulse-labeled with ^35S-labeled amino acids, chased for various times with unlabeled amino acids with or without various inhibitors, and the soluble and insoluble nascent radiolabeled α-globin in cell lysates was quantified.

The test system of the next data set is insoluble α-globin. The experiment in a line: Detection of insoluble α-globin precipitates (TAU gel) in erythroid cells of treated mice. The data set is classed as in vivo. The following applies: FIG. 2. Here is the method: Briefly, 20 μL of washed RBCs (normalized based on the hematocrit percentage) were lysed and centrifuged at 16,000×g at 4° C. for 30 minutes. The pellets were washed extensively in ice-cold 0.05×PBS. Membrane lipids were extracted with 56 mM sodium borate, pH 8.0, containing 0.1% TWEEN-20, at 4° C. Precipitated globins were dissolved in 8M urea, 10% acetic acid, 10% β-mercaptoethanol, and 0.04% pyronin, fractionated by TRITON-acetic acid-urea (TAU) gel electrophoresis, and stained with COOMASSIE brilliant blue. Soluble hemoglobin fractions were analyzed and quantified as loading controls by using AlphaView SA 3.4.0 (ProteinSimple).
(§1) Tissue samples were submitted for pathology analysis.
(§2) Insoluble α-globin in reticulocytes from rapamycin-treated Hbb^Th3/+ mice was decreased by approximately 50% (FIG. 2).

Data set [3] concerns electron-dense α-globin inclusions in reticulocytes. Description: Transmission electron microscopy of electron-dense aggregates in reticulocytes of treated mice. The following applies: β-thalassemic mice treated with rapamycin vs vehicle-treated controls; P<0.0001. The data set is classed as in vivo. The method, then:
Samples were fixed in 2.5% glutaraldehyde in 0.1M sodium cacodylate buffer, pH 7.4, and embedded in 2% low-gelling-temperature agarose. The samples were post-fixed in 2% osmium tetroxide in 0.1M cacodylate buffer with 0.3% potassium ferrocyanide for 1.5 hours, dehydrated through a graded series of ethanol/propylene oxide solutions, then infiltrated with and embedded in epoxy resin, which was polymerized at 70° C. overnight. Semi-thin (0.5 μm) sections were stained with toluidine blue for light microscope examination. Ultra-thin (80 nm) sections were cut and imaged using an FEI Tecnai 200 Kv FEG Transmission Electron Microscope with an ATM XR41 digital camera.
Areas of electron-dense α-globin inclusions in reticulocytes were quantified by automated image analysis of electron micrographs. TEM images were analyzed with the FIJI software program and the Trainable Weka Segmentation plugin to produce pixel-based segmentations in order to quantify differences in the numbers and areas of intracytoplasmic hemoglobin precipitates in thalassemic and non-thalassemic samples (Schindelin, et al. (2012) Nat. Meth. 9:676-682; Arganda-Carreras, et al. (2017) Bioinformatics 33:2424-2426).
as §1, §2

The test system of data set [4] is β-thalassemic and control mice. The experiment in a line: Hematologic analysis of mice treated with rapamycin for 30 days. The data set is classed as in vivo. The method, then:
Mice were analyzed at 1-6 months of age. Blood was collected by submandibular bleeding, anticoagulated with EDTA, and analyzed on a FORCYTE Veterinary Hematology Analyzer.
as §1

Data set [5] has as its system β-thalassemic and control mice. The experiment in a line: Pathology grading of erythropoiesis (bone marrow, spleen, liver) in rapamycin-treated mice. The data set is classed as in vivo. The following applies: rapamycin 30 days; for Bone marrow erythropoiesis grade / Liver erythropoiesis grade / Spleen erythropoiesis grade: grade scale 0-5; for Final grade (sum of the grades of the three tissues): scale 0-15. Here is the method:
Bright-field images of hematoxylin and eosin-stained tissues were acquired with a Nikon Eclipse Ni microscope. Morphologic phenotyping of all cohorts was carried out in a blinded manner by a board-certified veterinary pathologist. A semi-quantitative grading method was used to highlight visual differences in the erythropoiesis in each cohort. The bone marrow, spleen, and liver were first analyzed separately using the following grading scale: grade 0: within normal limits; grade 1: minimal; grade 2: mild; grade 3: moderate; grade 4: marked; grade 5: severe. A total grade for erythropoiesis (final grade) was calculated based on the sum of the grades for each of the three tissues. […] No mouse received a grade consistent with a severe increase in erythropoiesis.
as §1

[6] abbreviates: Hbb^+/+ Ulk1^+/+ mice, rapamycin 4 mg/kg i.p. daily 30 days, mean ± SD.
Where [7] appears, read: Hbb^Th3/+ Ulk1^+/+ mice, rapamycin 4 mg/kg i.p. daily 30 days, mean ± SD.
Setting [8] is: Hbb^Th3/+ Ulk1^−/− mice, rapamycin 4 mg/kg i.p. daily 30 days, mean ± SD.
The mark [9] stands for this setting: β-thalassemic mice, rapamycin 4 mg/kg i.p. daily 30 days vs vehicle, P<0.001.

Residues, ends and D or L forms follow the SMILES beside them. *: point of attachment. Cbz = O=C(OCc1ccccc1)*

Consider `CC(C)C[C@H](NC(=O)[C@H](Cc1ccccc1)NC(=O)c1cnccn1)B(O)O` [bortezomib], for which, in the data set with Hbb^Th3/+ mice, the “induction of autophagy and heat-shock proteins” value was “induced both autophagy and heat-shock proteins”; the “insoluble α-globin” value was “no net increase in insoluble α-globin”.

With `CC(C)C[C@@H](C=O)NC(=O)[C@H](CC(C)C)NC(=O)[C@H](CC(C)C)NC(=O)OCc1ccccc1` [MG132] (Cbz-Leu-Leu-Leu-aldehyde), the “effect on cell survival” value in data set [1] is listed as “induced cell death”. Besides, the “free α-globin levels” value in data set [2] (β-thalassemic erythroblasts, MG132 1 μM or 2.5 μM added day 13, HPLC two days later) is listed as “raised free α-globin levels”. Besides, the “sensitivity of clearance of labeled insoluble α-globin to the inhibitor” value in the data set with Hbb^Th3/+ reticulocytes was “sensitive”.

With `CO/C1=C\C(C)=C\[C@@H](C)[C@@H](O)[C@@H](C)C/C(C)=C/C=C/[C@H](OC)[C@@H]([C@@H](C)[C@@H](O)[C@H](C)[C@@]2(O)C[C@@H](O)[C@H](C)[C@@H](C(C)C)O2)OC1=O` [bafilomycin A1], the “sensitivity of clearance of labeled insoluble α-globin to the inhibitor” value in the data set with Hbb^Th3/+ reticulocytes is on record as “sensitive”.

Take `CO[C@H]1C[C@@H]2CC[C@@H](C)[C@@](O)(O2)C(=O)C(=O)N2CCCC[C@H]2C(=O)O[C@H]([C@H](C)C[C@@H]2CC[C@@H](O)[C@H](OC)C2)CC(=O)[C@H](C)/C=C(\C)[C@@H](O)[C@@H](OC)C(=O)[C@H](C)C[C@H](C)/C=C/C=C/C=C/1C` [rapamycin]: the “effect on the accumulation of insoluble α-globin” value in the data set on insoluble α-globin (Hbb^Th3/+Ulk1^−/− mice) is “no effect”. For the same compound, in the data set on insoluble α-globin (rapamycin-treated Hbb^Th3/+ mice), the “decrease of insoluble α-globin in reticulocytes” value is listed as “approximately 50%”. Further, the “effect on cell survival” value in data set [1] was “no deleterious effect on cell survival”. For the same compound, the “reduction in electron-dense aggregates in reticulocytes (TEM)” value in data set [3] was “approximately 60%”. Moreover, in data set [4] (setting [6]), the Hb is 13.78 ± 1.99^ns g/dL, the Hct was 40.98 ± 5.75^ns %, the MCH is on record as 14.53 ± 0.53^ns pg and the MCHC was 33.66 ± 0.76^ns g/dL. Also, in data set [4] (setting [6]), the MCV is given as 42.89 ± 1.61^ns fL, the RDW is listed as 14.40 ± 0.91^ns % and the Reticulocytes is on record as 2.90 ± 1.21^ns %. In data set [4] (setting [7]), this compound yielded a Hb of 10.33 ± 1.07 g/dL, a Hct of 29.42 ± 3.59 %, an MCH of 11.56 ± 1.21 pg and an MCHC of 35.54 ± 1.01 g/dL. In data set [4] (setting [7]), this compound yielded an MCV of 32.67 ± 3.02 fL, an RDW of 31.05 ± 5.23 % and a Reticulocytes of 13.06 ± 6.67 %. Besides, in data set [4] (setting [8]), the Hct is given as 25.42 ± 4.59^ns %, the MCH is reported as 15.08 ± 1.31^ns pg, the MCHC was 34.99 ± 2.14^ns g/dL and the MCV is 43.03 ± 1.62 fL. For the same compound, in data set [4] (setting [8]), the RBC was 5.81 ± 0.99^ns ×10^6/μL, the RDW is 39.73 ± 0.66^ns % and the Reticulocytes is given as 34.35 ± 2.78^ns %. Moreover, the “effect on RBC indices or erythropoiesis” value in data set [4] (wild-type or Hbb^Th3/+Ulk1^−/− mice) is “no effect”. Moreover, in data set [4] (setting [9]), the “decrease in reticulocyte count” value was determined as 44% and the “increase in RBC count” value was determined as 27%. For the same compound, the “increase in Hb” value in data set [4] (β-thalassemic mice, rapamycin 4 mg/kg i.p. daily 30 days vs vehicle, P<0.05) turned out to be 10%. The “reduction of free α-globin” value in data set [2] (NTD β-thalassemic erythroblasts, P<0.001) worked out at 85%. For the same compound, in data set [2] (TD β-thalassemia erythroblasts, P<0.0001), the “reduction of free α-globin” value is 40%. In data set [5] (Hbb^+/+ Ulk1^+/+ mice), the “Bone marrow erythropoiesis grade” value is reported as 0.00 ± 0.00^ns, the Liver erythropoiesis grade is given as 0.44 ± 0.53^ns, the Spleen erythropoiesis grade was 0.00 ± 0.00^ns and the “Final grade (sum of the grades of the three tissues)” value (from here on “Final grade”) is 0.44 ± 0.53^ns. Further, in data set [5] (Hbb^Th3/+ Ulk1^+/+ mice), the “Bone marrow erythropoiesis grade” value was 1.75 ± 1.67^ns, the Liver erythropoiesis grade is 0.87 ± 0.35^ns, the Spleen erythropoiesis grade is recorded as 2.37 ± 0.52 and the “Final grade” value is listed as 5.00 ± 1.85. In data set [5] (Hbb^Th3/+ Ulk1^−/− mice), the “Bone marrow erythropoiesis grade” value is listed as 3.30 ± 0.48^ns, the Liver erythropoiesis grade was 1.10 ± 0.31, the Spleen erythropoiesis grade is 3.20 ± 0.79^ns and the “Final grade” value was 7.60 ± 1.07^ns.
